Patent publication US6855836B2, “17-Methylene steroids, process for their production and pharmaceutical compositions that contain these compounds” (Jenapharm GmbH & Co. KG, priority 2000, dated 2005)

Assays:
[1] = target: T1, Progesterone-receptor (Oryctolagus cuniculus, UniProt P06186); assay: Progesterone-receptor binding to uterus-cytosol, tracer 3H-ORG 2058; conditions: rabbits, primed, 0-4° C., 18 hours, reference progesterone = 100%
T1 construct: from tissue; host or cells: uterus cytosol of primed rabbits
T1 sequence (P06186 1-930): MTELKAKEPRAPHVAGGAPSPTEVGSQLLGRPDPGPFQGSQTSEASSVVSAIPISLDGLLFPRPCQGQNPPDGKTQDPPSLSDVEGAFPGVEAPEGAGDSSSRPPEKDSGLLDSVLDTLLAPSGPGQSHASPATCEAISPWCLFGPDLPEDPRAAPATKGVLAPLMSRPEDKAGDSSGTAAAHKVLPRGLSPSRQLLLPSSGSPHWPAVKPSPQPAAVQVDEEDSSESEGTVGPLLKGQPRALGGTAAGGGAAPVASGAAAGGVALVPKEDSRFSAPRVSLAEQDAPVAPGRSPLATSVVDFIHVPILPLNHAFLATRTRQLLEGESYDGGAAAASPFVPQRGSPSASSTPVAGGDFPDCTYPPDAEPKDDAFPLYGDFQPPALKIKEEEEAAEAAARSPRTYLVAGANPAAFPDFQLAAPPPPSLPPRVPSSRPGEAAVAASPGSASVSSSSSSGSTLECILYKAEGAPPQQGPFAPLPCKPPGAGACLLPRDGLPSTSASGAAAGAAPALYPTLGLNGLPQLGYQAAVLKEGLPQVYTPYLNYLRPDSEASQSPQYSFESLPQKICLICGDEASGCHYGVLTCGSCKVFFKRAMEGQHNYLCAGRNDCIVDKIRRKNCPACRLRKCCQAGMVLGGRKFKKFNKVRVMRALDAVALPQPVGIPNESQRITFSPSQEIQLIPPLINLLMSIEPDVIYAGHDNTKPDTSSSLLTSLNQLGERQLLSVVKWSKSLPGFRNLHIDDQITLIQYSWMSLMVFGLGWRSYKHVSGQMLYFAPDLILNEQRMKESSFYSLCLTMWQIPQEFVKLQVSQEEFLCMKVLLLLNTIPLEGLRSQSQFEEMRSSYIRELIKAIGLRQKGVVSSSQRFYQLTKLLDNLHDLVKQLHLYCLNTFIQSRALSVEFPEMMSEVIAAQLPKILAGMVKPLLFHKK

[2] = target: T2, 5α-Reductase-Type 2 (Homo sapiens, UniProt P31213); assay: 5α-Reductase-type 2-activity in genital dermal homogenates; assay type: biochemical; conditions: optimized conditions at pH 5.5
T2 construct: 5α-Reductase-Type 2-Activity in Genital Dermal Homogenates; from tissue; host or cells: genital dermal (skin) homogenate
T2 sequence (P31213 1-254): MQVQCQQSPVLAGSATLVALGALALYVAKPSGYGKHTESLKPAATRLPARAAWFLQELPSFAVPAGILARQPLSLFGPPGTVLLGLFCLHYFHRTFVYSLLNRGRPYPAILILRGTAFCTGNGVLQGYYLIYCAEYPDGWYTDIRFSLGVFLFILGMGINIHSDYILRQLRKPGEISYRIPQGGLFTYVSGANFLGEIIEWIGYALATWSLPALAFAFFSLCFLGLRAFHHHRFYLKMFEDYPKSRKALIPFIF
From the text: (§1) Data for 5α-reductase-type 2-activity in genital dermal homogenates and in vivo data for gestagenic activity are presented by way of example in Tables 1 and 2 below.

[3] = tested on: pregnancy maintenance; assay: Mouse pregnancy maintenance test after s.c. administration (gestagenic activity); assay type: in vivo
From the text: as §1

C[C@]12CC[C@H]3[C@@H](CCC4=C(Cl)C(=O)CC[C@@H]43)[C@@H]1CC/C2=C\Cl [Compound 1, E-17-Chloromethylene-4-chloro-estr-4-en-3-one]
PR, Progesterone = 100% (progesterone-receptor binding) [1]: 60% | IC50 [2]: 250 nM | Pregnancy rate achieved ([3]; 0.1 mg/animal/day s.c.): 0/5 | Pregnancy rate achieved ([3]; 1.0 mg/animal/day s.c.): 5/5
